Literature values in patent US20160106679A1, “TABLET WITH INCREASED DRUG LOAD OF ODANACATIB” (SANDOZ AG, priority 2013, published 2016).
Where two headings read alike, the source gives them in different places.

Experiments:
[1] = tested on: patients
[2] = highly crystalline odanacatib

CC(C)(F)C[C@H](N[C@@H](c1ccc(-c2ccc(S(C)(=O)=O)cc2)cc1)C(F)(F)F)C(=O)NC1(C#N)CC1 [Odanacatib, odanacatib]
BMD change at lumbar spine, hip and femoral neck ([1]; patients treated once weekly with 20-50 mg): increases in lumbar spine, hip and femoral neck BMD
BMD change at lumbar spine, hip and femoral neck ([1]; patients treated with low doses): decreases in BMD at the same sites
aqueous solubility [2]: low
